Experimental data published in patent US20100130585A1, “METHODS AND COMPOSITIONS FOR INVESTIGATION AND TREATMENT OF CANCER USING A G-PROTEIN COUPLED EICOSANOID RECEPTOR” (priority 2005, published 2010).
“Also recorded” adds a separate entry of the source.

Tests used:
[1] = test system: prostate cancer cells; conditions: exogenous metabolite, previous work [7, 8, 17]; cited from earlier work
[2] = test system: PC3 cells; assay: Killing of PC3 cells by 5-LOX inhibitor; assay type: cell-based, human; conditions: 10 micromolar
[3] = test system: 5-LOX; assay: Production of 5-oxoETE in PC3 cells measured by LC/MS; assay type: cell-based, human; conditions: 10 micromolar, two hours at 37 degree C, control cells 11 picograms per ml
Experimental: We also measured the production of 5-oxoETE in PC3 prostate cancer cells by liquid chromatography/mass spectrometry “(LC/MS”) to assess whether prostate cancer cells constitutively produce 5-oxoETE as a survival factor. […] PC3 prostate cancer cells (2 million per plate) were plated in 6 ml RPMI medium in serum-free medium for 24 hours. On the next day cells were treated with 10 micromolar MK591 (a specific 5-LOX inhibitor) for two hours at 37 degree C., or cells were left untreated. The media were collected, eicosanoids extracted, and measured by LC/MS.

Row | SMILES | prevention of apoptosis triggered by 5-LOX inhibition [1] | killing of PC3 cells [2] | eicosanoids (5-oxoETE) in serum-free culture medium [3]
1 | CCCCC/C=C\C/C=C\C/C=C\C=C\[C@@H](O)CCCC(=O)O [5-HETE, 5(S)-hydroxyeicosatetraenoic acid] | prevented | – | –
2 | CCCCC/C=C\C/C=C\C/C=C\C=C\C(=O)CCCC(=O)O [5-oxoETE, 5-oxoeicosatetraenoic acid] | prevented; also recorded: more effective | – | –
3 | CC(C)(C)Sc1c(CC(C)(C)C(=O)O)n(Cc2ccc(Cl)cc2)c2ccc(OCc3ccc4ccccc4n3)cc12 [MK591] | – | kills PC3 cells | 0 picograms per ml
